According to patent US7381703B2, “Aplidine for multiple myeloma treatment” (Dana-Faber Cancer Institute, Inc., priority 2003, dated 2008):
Numbered stars: 1 amine (or outer) side, 2 acyl side, 3 side chain; on linkers, the order of the positions; unused ones are H or OH. Bridge positions count the residues as written; N and C are the ends. Square brackets hold non-standard residues; d marks the D form. Peptide text beside a SMILES is read from it. * marks the point of attachment. X1 = CC[C@H](C)[C@@H](N[*:1])[C@@H](O)CC(=O)O[C@H](C(=O)[C@H](C)C(=O)[*:2])C(C)C; NMeY = CN[C@@H](Cc1ccc(O)cc1)C(=O)O; dNMeL = CN[C@H](CC(C)C)C(=O)O; Pyruvoyl = CC(=O)C(=O)*

Key:
[1] = test system: bladder carcinoma; conditions: bladder carcinoma in the hollow fiber; cited from earlier work
[2] = test system: primary MM tumor cells; assay: MTT survival assay, combination with doxorubicin; format: cell-based, human; conditions: aplidine 2 nM with doxorubicin 10 ng/mL, primary MM tumor sample (FIG. 5)
[3] = test system: MM-1S human MM cells stably transfected with Bcl-2; assay: MTT survival assay, Bcl-2-transfected MM-1S cells; format: cell-based; conditions: Bcl-2-transfected MM-1S cells (FIG. 1)
Protocol: (§1) Cell survival was examined using the 3-(4,5-dimethylthiazol-2-yl)-2,5-diphenyltetrazolium bromide (MTT; Sigma Chemical, St Louis, Mo.) colorimetric assay, as previously described (Mitsiades C. S. et al. Blood. 2001, 98, 795-804; Mitsiades N. et al. Proc Natl Acad Sci USA. 2002, 99, 14374-14379; Mitsiades N. et al. Blood. 2003, 101, 2377-2380). Briefly, cells were plated in 48-well plates at 70% to 80% confluence in the presence of 2.5% fetal bovine serum (FBS) and in the presence of Aplidine at final concentration of 0-100 nM or DMSO vehicle control. At the end of each treatment, cells were incubated with 1 mg/mL MTT for 4 hours at 37° C.; a mixture of isopropanol and 1 N HCl (23:2, vol/vol) was then added under vigorous pipetting to dissolve the formazan crystals. Dye absorbance (A) in viable cells was measured at 570 nm, with 630 nm as a reference wavelength. Cell viability was estimated as a percentage of the value of untreated controls. All experiments were repeated at least 3 times, and each experimental condition was repeated at least in triplicate wells in each experiment. Data reported are average values±SD of representative experiments. […]

[4] = test system: non-small-cell lung tumor cells; conditions: cited from earlier work
[5] = test system: BMSCs; conditions: at the aplidine doses used in the co-culture
Protocol: (§2) We therefore investigated whether aplidine can also overcome the molecular sequelae of the interaction of BMSCs with MM cells and achieve anti-MM activity in this context. We thus performed in vitro co-culture assays of MM cells with BMSCs as previously described: BMSCs were grown on 24-well plates to confluency. […] Flow cytometric analysis was performed to detect the CD138+ population of viable MM cells and the effect of aplidine on MM cell viability was expressed as % of viable cell numbers in comparison to the respective vehicle-treated cultures.

[6] = test system: human MM cell lines; assay: MTT colorimetric survival assay, panel of MM cell lines; format: cell-based; conditions: for the overwhelming majority of the MM cell lines of the panel (FIG. 1), read-out: IC50 doses
Protocol: as §1

[7] = test system: NCI human in vitro panel cell lines; conditions: cited from earlier work
[8] = test system: primary MM tumor cells; assay: MTT survival assay, primary MM tumor cells; format: cell-based, human; conditions: 10 primary tumor specimens from multi-drug resistant MM patients; 20 nM for 48 hrs (FIG. 2)
Protocol: as §1

[9] = test system: MM-1S human MM cells stably transfected with myristoylated Akt; assay: MTT survival assay, myrAkt-transfected MM-1S cells; format: cell-based; conditions: myrAkt-transfected MM-1S cells (FIG. 1)
Protocol: as §1

[10] = test system: multiple myeloma lines resistant to dexamethasone (MM 1.R); conditions: cells in culture, XTT or MTS (FIG. 6)
Protocol: The cells used were: • multiple myeloma cells (MM1.S) • multiple myeloma lines resistant to dexamethasone (MM 1.R) • a multiple myeloma line overexpressing Bcl-2
For established cell lines, cells were plated in 96 well plates and allowed to grow for 24 h prior to addition of drugs. Cells were incubated with drug for indicated times and cell viability was measured by the XTT or MTS assay using an automated plate reader.

[11] = phase I/II trials; cited from earlier work
[12] = solubilised aplidine; cited from earlier work
[13] = test system: colon tumor cells; conditions: cited from earlier work
[14] = test system: multiple myeloma line overexpressing Bcl-2; assay: XTT or MTS cell viability assay, Bcl-2 overexpressing MM line; format: cell-based; conditions: cells in culture, XTT or MTS (FIG. 7)
Protocol: Aplidine was tested against various established cells in culture.

[15] = test system: gastric, prostate and Burkitts lymphoma human xenografts; conditions: subcutaneous implanted gastric; cited from earlier work
[16] = test system: B16 melanoma; conditions: murine tumors such as B16 melanoma; cited from earlier work
[17] = test system: colon CX-1; conditions: mice bearing human xenografted tumors; cited from earlier work
[18] = test system: VEGF secretion; assay: Quantification of VEGF secretion by ELISA; format: cell-based, human; conditions: 20 nM
From the text: MM cell adhesion to BMSCs induces increased secretion of angiogenic cytokines, such as vascular endothelial growth factor (VEGF), an event deemed of major significance for the recruitment of new blood vessels at the sites of MM cells in the BM milieu. […] The supernatants were collected and assayed for VEGF concentration by enzyme-linked immunosorbent assay (ELISA) using a commercially available kit (VEGF ELISA kit; R&D Systems), according to the instructions of the manufacturer.

[19] = test system: primary MM tumor cells co-cultured with BMSCs; assay: Co-culture of MM cells with bone marrow stromal cells, flow cytometry of viable CD138+ cells; format: cell-based, human; conditions: 48 hours, flow-cytometric determination of cell death (FIG. 3)
Protocol: as §2

[20] = test system: breast MX-1; conditions: mice bearing human xenografted tumors; cited from earlier work

CC[C@H](C)[C@H]1NC(=O)[C@@H](NC(=O)[C@@H](CC(C)C)N(C)C(=O)[C@@H]2CCCN2C(=O)C(C)=O)[C@@H](C)OC(=O)[C@H](Cc2ccc(OC)cc2)N(C)C(=O)[C@@H]2CCCN2C(=O)[C@H](CC(C)C)NC(=O)[C@@H](C)C(=O)[C@H](C(C)C)OC(=O)C[C@@H]1O [Aplidine, Dehydrodidemnin B] (Pyruvoyl-P[dNMeL]T[X1]LP[NMeY](Me); ester 3-C)
in vivo antitumor activity [1]: in vivo antitumor activity
responsiveness of MM cells to doxorubicin in combination with Aplidine [2]: increased responsiveness to doxorubicin
sensitivity to aplidine vs. empty-vector transfected cells [3]: did not have lower sensitivity
IC50 [4]: 0.18 nM
survival of BMSCs [5]: did not significantly affect
IC50 [6]: ≤ 10 nM
selectivity in the NCI human in vitro panel [7]: selectivity for non-small-cell lung cancer (NSCLC), melanoma, ovarian and colorectal cancer cell lines
in vitro anti-MM activity [8]: consistent with the results obtained from the testing of our cell line panel
sensitivity to aplidine vs. empty-vector transfected cells [9]: did not have lower sensitivity
growth inhibition of dexamethasone resistant MM1.R cells compared with MM1.S [10]: as effectively as the parenteral line (MM1.S)
dose-limiting toxicity [11]: muscular toxicity
myelosuppression [11]: remarkable lack of severe myelosuppression
degradation under heat and light stress testing conditions [12]: substantial degradation
IC50 [13]: 0.45 nM
growth of Bcl-2 overexpressing MM cells [14]: inhibits growth
in vivo antitumor activity [15]: in vivo antitumor activity
in vivo activity [16]: in vivo activity
in vivo activity [17]: confirm activity
VEGF secretion when MM cells are co-cultured with BMSCs ([18]; 12-hour treatment, co-culture (FIG. 4B)): counteract the increase in VEGF secretion
secretion of VEGF by MM cells ([18]; 12-hour treatment, primary MM tumor cells (FIGS. 4A and 4B)): suppress the secretion of VEGF
VEGF secretion by BMSCs ([18]; 12 hrs, BMSCs (FIG. 4B)): suppresses the VEGF secretion
effect of MM-BMSC interaction on in vitro anti-MM activity [19]: did not significantly attenuate
in vivo activity [20]: confirm activity
